Several values for one entry are separate records, joined by “and”; a condition that tells them apart may be missing. Equal entries are not always repeated. Entries after “also recorded” stand apart in the source; their conditions may differ.
Test system: PSMA-positive PC-3 PIP tumor xenografts
Test: Therapy study in PC-3 PIP tumor-bearing mice
Type: in vivo, BALB/c nude mice
Experimental: Five days after subcutaneous inoculation of four groups of mice with either PC-3 PIP or PC-3 flu tumor cells on the right shoulder (4 × 10^6 cells in 100 μL HBSS), the mice were intravenously injected with either vehicle only (saline with 0.05% BSA, n = 6 and n = 4, respectively) or with 30 kBq [^225Ac]Ac-SibuDAB (1 nmol per mouse; n = 4 per group) diluted in vehicle (Table 1).
After tumor cell inoculation, mice bearing PC-3 PIP tumor xenografts were intravenously injected with vehicle only (n = 6) or with [^225Ac]Ac-SibuDAB or [^225Ac]Ac-PSMA-617, respectively, applied at 5 kBq or 10 kBq (1 nmol per mouse; n = 6 per group; Table 1). The control group consisted of mice from several studies (n = 12 mice) and the data from this group were published previously.
After administration of the radioligands, the mice were monitored over 8 weeks using the same measures as previously published by Umbricht et al.. The relative body mass was defined as [BMx/BM0], where BMx is the body mass in grams at a given Day x and BM0 is the body mass in grams at Day 0. The tumor dimension was determined by measuring the longest tumor axis (L) and its perpendicular axis (W) with a digital caliper. The tumor volume (V) was calculated according to the equation [V = 0.5 × (LW^2)]. The relative tumor volume was defined as [TVx/TV0], where TVx is the tumor volume in mm^3 at a given Day x, and TV0 is the tumor volume in mm^3 at Day 0. Endpoint criteria that required euthanasia were defined as (i) body mass loss of >15%, (ii) a tumor volume of >800 mm^3, (iii) a combination of body mass loss of >10% and a tumor volume of >700 mm^3 or, (iv) signs of unease and pain or a combination thereof using a scoring system as previously reported. The median survival of mice of each group was assessed with Kaplan–Meier curves. Potential early side effects for mice that survived until study end were determined based on blood chemistry and organ-to-brain mass ratios on Day 56 by comparison to values obtained from an additional group of therapy-naïve mice (n = 4) without tumors but of the same age (Supplementary Material: Section S9).
Table S10. Biodistribution data and tumor-to-background ratios obtained in PC3-PIP/flu tumor-bearing mice 48 h after injection of [225Ac]Ac-SibuDAB, [177Lu]Lu-SibuDAB, [225Ac]Ac-PSMA-617 or [177Lu]Lu-PSMA-617. Decay-corrected data of accumulated activity are shown as [% IA/g]-values, representing the average ± SD.
Biodistribution data at 48 h p.i.
1 Data of [177Lu]Lu-PSMA-617 were previously published by Benešová et al., Mol Pharm 2018 [2]; Copyright 2018, American Chemical Society.
Purpose: In order to determine the therapeutic efficacy of [225Ac]Ac-SibuDAB in com-parison to [225Ac]Ac-PSMA-617 as well as the 177Lu-labeled counterparts, therapy studies were conducted in PC-3 PIP xenograft-bearing BALB/c nude mice.
Methods: The methods of the therapy study to assess the therapeutic efficacy of [225Ac]Ac-SibuDAB are reported in the main manuscript. An additional group of mice was treated with 10 MBq (1 nmol) [177Lu]Lu-SibuDAB under the same experimental condi-tions. Data previously acquired by our group for mice treated with 5 MBq [177Lu]Lu-SibuDAB were published by Borgna & Deberle et al. and data of mice treated with 5 MBq or 10 MBq [177Lu]Lu-PSMA-617 were previously published by Tschan et al. and Umbricht et al., respectively.
Results: The assessment of the PSMA-specific therapeutic effect of [225Ac]Ac-SibuDAB as well as the comparison to [225Ac]Ac-PSMA-617 are described in the main ar-ticle. The body mass of effectively treated mice, in which the tumor disappeared entirely […]
tumor-bearing mice that were treated with only vehicle as well as for some mice that were treated with 5 kBq or 10 kBq [225Ac]Ac-PSMA-617 and experienced a relapse in tumor

Row | SMILES | Day of first endpoint (5 kBq) | Day of last endpoint (5 kBq) | Median Survival (5 kBq) | Number of Mice Alive on Day 56 (5 kBq) | Tumor response (5 kBq) | Day of first endpoint (10 kBq) | Day of last endpoint (10 kBq) | Median Survival (10 kBq) | Number of Mice Alive on Day 56 (10 kBq) | Tumor response (5 kBq, listed as [225Ac]Ac-SibuDAB) | Tumor response (10 kBq) | Tumor response (10 kBq, listed as [225Ac]Ac-SibuDAB) | Day of first endpoint (30 kBq) | Day of last endpoint (30 kBq) | Median Survival (30 kBq) | Number of Mice Alive on Day 56 (30 kBq) | Tumor response (30 kBq) | Tumor response (30 kBq, listed as [225Ac]Ac-SibuDAB)
1 | O=C([O-])CN1CCN(CC(=O)[O-])CCN(CC(=O)NCC2CCC(C(=O)NC(Cc3ccc4ccccc4c3)C(=O)NCCCCC(NC(=O)NC(CCC(=O)O)C(=O)O)C(=O)O)CC2)CCN(CC(=O)[O-])CC1.[225Ac+3] (stereo not drawn) [[^225Ac]Ac-PSMA-617] | 42 | 56 | 46 days | one out of six and 1/6 | tumor regrowth was observed | 38 | 56 | >56 ^3 days | four out of six and 4/6 | – | – | – | – | – | – | – | – | –
2 | CC(C)Cc1ccc(C(C)C(=O)NC(CCN)C(=O)NCCCCC(NC(=O)CN2CCN(CC(=O)[O-])CCN(CC(=O)[O-])CCN(CC(=O)[O-])CC2)C(=O)NCC2CCC(C(=O)NC(Cc3ccc4ccccc4c3)C(=O)NCCCCC(NC(=O)NC(CCC(=O)O)C(=O)O)C(=O)O)CC2)cc1.[225Ac+3] (stereo not drawn) [[^225Ac]Ac-SibuDAB] | 56 ^2 | 56 ^2 | >56 ^3 days | 6/6 | sufficient to eradicate the tumors; also recorded: effectively eradicated tumors of all mice; also recorded: no tumors were visible at Day 56 | 56 ^2 | 56 ^2 | >56 ^3 days | 6/6 | no tumors were visible 56 days after; also recorded: no tumor visible on Day 56 | effectively eradicated tumors of all mice | no tumor visible on Day 56 | 56 ^2 | 56 ^2 | >56 ^3 days | 4/4 | eradicated PSMA-positive PC-3 PIP tumors entirely | no tumor visible on Day 56
